Reference: patent publication US10738057B2, “Tertiary alcohols as PI3K-γ inhibitors” (Incyte Corporation, priority 2017, dated 2020)
Where a name gives a salt, the structure may show the parent alone.

Columns and labels:
[1] = target: PI3Kγ (p110γ) Recombinant Human Protein (Homo sapiens (Human), UniProt P48736); test: PI3K-γ scintillation proximity assay; type: biochemical; settings: 20 μM PIP2, 2 μM ATP, 13 nM PI3Kγ, 120 min, room temperature
Text: Example B. PI3K-γ Scintillation Proximity Assay
[γ-^33P]ATP (10 mCi/mL) and Wheat Germ Agglutinin (WGA) YSi SPA Scintillation Beads was purchased from PerkinElmer (Waltham, Mass.). Lipid kinase substrate, D-myo-Phosphatidylinositol 4,5-bisphosphate (PtdIns(4,5)P2)D (+)-sn-1,2-di-O-octanoylglyceryl, 3-O-phospho linked (PIP2), CAS 204858-53-7, was purchased from Echelon Biosciences (Salt Lake City, Utah). PI3Kγ (p110γ) Recombinant Human Protein was purchased from Life technology (Grand Island, N.Y.). ATP, MgCl2, DTT, EDTA, MOPS and CHAPS were purchased from SigmaAldrich (St. Louis, Mo.).
(§1) The kinase reaction was conducted in polystyrene 384-well Greiner Bio-one white plate from Thermo Fisher Scientific in a final volume of 25 μL. Inhibitors were first diluted serially in DMSO and added to the plate wells before the addition of other reaction components. The final concentration of DMSO in the assay was 2%. The PI3Kγ assay was carried out at room temperature in 20 mM MOPS, pH 6.7, 10 mM MgCl2, 5 mM DTT and CHAPS 0.03%. Reactions were initiated by the addition of ATP, the final reaction mixture consisted of 20 μM PIP2, 2 μM ATP, 0.5 μCi [γ-^33P] ATP, 13 nM PI3Kγ. Reactions were incubated for 120 min and terminated by the addition of 40 μL SPA beads suspended in quench buffer: 163 mM potassium phosphate pH 7.8, 20% glycerol, 25 mM EDTA. The final concentration of SPA beads is 1.0 mg/mL. After the plate sealing, plates were shaken overnight at room temperature and centrifuged at 1500 rpm for 10 min, the radioactivity of the product was determined by scintillation counting on Topcount (Perkin-Elmer). IC50 determination was performed by fitting the curve of percent of the solvent control activity versus the log of the inhibitor concentration using the GraphPad Prism 6.0 software.

[2] = target: PI3Kδ (p110δ/p85α) Recombinant Human Protein (Homo sapiens (Human), UniProt O00329); test: PI3Kδ scintillation proximity assay; type: biochemical; settings: 20 μM PIP2, 2 μM ATP, 3.4 nM PI3Kδ, 120 min, room temperature; read-out: PI3Kδ IC50
Experimental: PI3Kδ Scintillation Proximity Assay
[γ-^33P]ATP (10 mCi/mL) and Wheat Germ Agglutinin (WGA) YSi SPA Scintillation Beads was purchased from PerkinElmer (Waltham, Mass.). […] PI3Kδ (p110δ/p85α) Recombinant Human Protein was purchased from Eurofins (St Charles, Mo.). ATP, MgCl2, DTT, EDTA, MOPS and CHAPS were purchased from SigmaAldrich (St. Louis, Mo.).
as §1, with “PI3Kδ” for “PI3Kγ”, “ATP, 13 nM PI3Kγ. Reactions were incubated for 120 min and terminated by the addition of 40 μL SPA beads suspended in quench buffer: 163 mM potassium phosphate pH 7.8, 20% glycerol, 25 mM EDTA.” left out, “(PerkinElmer).” for “(Perkin-Elmer).”

Sequence of PI3Kδ (p110δ/p85α) Recombinant Human Protein (O00329 whole entry): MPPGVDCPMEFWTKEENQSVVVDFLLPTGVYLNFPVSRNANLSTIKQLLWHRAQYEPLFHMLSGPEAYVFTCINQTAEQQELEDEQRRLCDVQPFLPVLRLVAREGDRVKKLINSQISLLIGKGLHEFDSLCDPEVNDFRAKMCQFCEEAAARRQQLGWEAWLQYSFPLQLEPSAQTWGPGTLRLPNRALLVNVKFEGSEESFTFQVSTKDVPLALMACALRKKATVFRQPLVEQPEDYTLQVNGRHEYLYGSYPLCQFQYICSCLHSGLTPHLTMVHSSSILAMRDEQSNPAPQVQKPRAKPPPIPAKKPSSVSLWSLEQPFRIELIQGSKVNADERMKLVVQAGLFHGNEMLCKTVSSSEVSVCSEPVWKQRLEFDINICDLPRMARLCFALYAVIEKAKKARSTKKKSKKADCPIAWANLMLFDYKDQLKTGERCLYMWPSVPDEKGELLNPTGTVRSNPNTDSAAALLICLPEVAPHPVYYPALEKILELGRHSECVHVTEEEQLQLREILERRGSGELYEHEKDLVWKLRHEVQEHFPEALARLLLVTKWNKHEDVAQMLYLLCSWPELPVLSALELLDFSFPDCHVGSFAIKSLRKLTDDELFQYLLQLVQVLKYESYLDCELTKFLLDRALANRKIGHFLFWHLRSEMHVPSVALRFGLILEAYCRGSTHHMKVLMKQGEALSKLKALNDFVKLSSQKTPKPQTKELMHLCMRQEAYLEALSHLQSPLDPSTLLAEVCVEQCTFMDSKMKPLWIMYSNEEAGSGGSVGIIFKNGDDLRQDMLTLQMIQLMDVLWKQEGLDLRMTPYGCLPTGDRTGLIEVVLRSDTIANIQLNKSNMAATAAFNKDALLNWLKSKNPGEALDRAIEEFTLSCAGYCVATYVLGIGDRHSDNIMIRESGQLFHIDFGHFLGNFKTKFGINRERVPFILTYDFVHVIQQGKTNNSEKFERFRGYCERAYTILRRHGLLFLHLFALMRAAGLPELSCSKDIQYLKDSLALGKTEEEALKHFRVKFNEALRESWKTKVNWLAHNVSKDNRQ
Sequence of PI3Kδ (p110δ/p85α) Recombinant Human Protein (P27986 whole entry partner): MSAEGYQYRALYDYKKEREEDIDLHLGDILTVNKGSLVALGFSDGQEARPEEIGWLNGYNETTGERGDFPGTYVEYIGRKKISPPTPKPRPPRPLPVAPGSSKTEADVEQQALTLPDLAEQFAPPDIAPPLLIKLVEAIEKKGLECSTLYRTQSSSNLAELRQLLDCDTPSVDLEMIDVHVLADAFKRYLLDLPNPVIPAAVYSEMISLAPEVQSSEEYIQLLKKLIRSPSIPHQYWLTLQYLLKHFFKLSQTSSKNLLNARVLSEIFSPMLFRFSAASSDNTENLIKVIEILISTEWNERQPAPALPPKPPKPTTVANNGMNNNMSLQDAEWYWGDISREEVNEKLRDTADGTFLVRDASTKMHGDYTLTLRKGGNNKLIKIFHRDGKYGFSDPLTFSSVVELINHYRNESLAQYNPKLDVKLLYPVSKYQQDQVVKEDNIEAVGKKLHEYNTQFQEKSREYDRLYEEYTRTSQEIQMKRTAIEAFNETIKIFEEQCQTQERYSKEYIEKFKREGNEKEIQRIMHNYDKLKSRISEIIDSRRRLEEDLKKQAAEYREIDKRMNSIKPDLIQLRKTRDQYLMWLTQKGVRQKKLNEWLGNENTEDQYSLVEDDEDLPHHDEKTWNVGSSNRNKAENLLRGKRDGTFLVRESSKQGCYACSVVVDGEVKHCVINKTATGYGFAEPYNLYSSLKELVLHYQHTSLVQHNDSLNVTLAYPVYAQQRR
Sequence of PI3Kγ (p110γ) Recombinant Human Protein (P48736 whole entry): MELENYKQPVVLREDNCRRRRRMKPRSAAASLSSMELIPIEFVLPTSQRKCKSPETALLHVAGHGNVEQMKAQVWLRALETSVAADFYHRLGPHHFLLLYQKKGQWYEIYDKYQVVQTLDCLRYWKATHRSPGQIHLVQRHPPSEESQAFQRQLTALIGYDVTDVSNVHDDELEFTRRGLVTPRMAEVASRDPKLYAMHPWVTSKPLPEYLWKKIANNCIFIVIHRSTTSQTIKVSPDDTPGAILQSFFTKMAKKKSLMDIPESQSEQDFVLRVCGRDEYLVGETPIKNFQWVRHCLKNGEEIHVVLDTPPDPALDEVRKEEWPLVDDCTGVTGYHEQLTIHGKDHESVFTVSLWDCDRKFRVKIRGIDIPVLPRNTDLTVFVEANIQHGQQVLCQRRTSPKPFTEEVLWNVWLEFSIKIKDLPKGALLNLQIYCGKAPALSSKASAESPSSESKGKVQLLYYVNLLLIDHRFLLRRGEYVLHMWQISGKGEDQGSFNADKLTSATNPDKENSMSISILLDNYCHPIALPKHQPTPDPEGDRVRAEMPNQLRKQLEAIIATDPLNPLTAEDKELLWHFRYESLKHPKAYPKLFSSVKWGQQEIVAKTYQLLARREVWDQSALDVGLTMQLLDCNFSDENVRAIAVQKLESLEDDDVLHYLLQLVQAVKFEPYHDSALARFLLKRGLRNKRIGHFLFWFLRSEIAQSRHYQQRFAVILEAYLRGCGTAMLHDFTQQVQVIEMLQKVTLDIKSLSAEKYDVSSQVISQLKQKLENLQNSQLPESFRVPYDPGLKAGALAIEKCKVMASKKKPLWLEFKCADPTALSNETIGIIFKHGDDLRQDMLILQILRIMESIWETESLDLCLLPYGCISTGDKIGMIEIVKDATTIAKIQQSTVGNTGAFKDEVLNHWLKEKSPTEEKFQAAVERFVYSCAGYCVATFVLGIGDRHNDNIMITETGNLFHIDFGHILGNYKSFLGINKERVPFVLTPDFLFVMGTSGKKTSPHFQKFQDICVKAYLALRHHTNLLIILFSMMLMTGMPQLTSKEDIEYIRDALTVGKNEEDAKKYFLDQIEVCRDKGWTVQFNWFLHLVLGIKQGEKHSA

| IC50 [1] | IC50 [2] | Compound |
| --- | --- | --- |
| 100 to 500 nM | 500 to 2000 nM | CC(O)(c1cc(-c2cnc3c(N)nc(C(F)(F)F)cn23)c2ccn(S(=O)(=O)c3ccccc3)c2c1)C(F)(F)F (racemic) [Example 224, 2-(4-(8-Amino-6-(trifluoromethyl)imidazo[1,2-a]pyrazin-3-yl)-1-(phenylsulfonyl)-1H-indol-6-yl)-1,1,1-trifluoropropan-2-ol] |
| < 100 nM | 100 to 500 nM | [2H]C([2H])([2H])c1ccc(C(O)(C(C)(C)O)C(F)(F)F)cc1-c1cnc2c(N)nc(C(F)(F)F)cn12 (racemic) [Example 235, 2-(3-(8-Amino-6-(trifluoromethyl)imidazo[1,2-a]pyrazin-3-yl)-4-(methyl-d3)phenyl)-1,1,1-trifluoro-3-methylbutane-2,3-diol trifluoroacetate salt] |
| < 100 nM | 500 to 2000 nM | Cc1ccc(C(C)(O)C(F)(F)C(F)(F)F)cc1-c1cnc2c(N)nc(C(F)(F)F)cn12 (single isomer, unassigned) [Example 59, 2-(3-(8-Amino-6-(trifluoromethyl)imidazo[1,2-a]pyrazin-3-yl)-4-methylphenyl)-3,3,4,4,4-pentafluorobutan-2-ol] |
| < 100 nM | 100 to 500 nM | Cc1ccc(C(C)(O)C(F)(F)F)cc1-c1cnc2c(N)nc(C(=O)NCC(C)(C)O)cn12 (single isomer, unassigned) [Example 62, 8-amino-N-(2-hydroxy-2-methylpropyl)-3-(2-methyl-5-(1,1,1-trifluoro-2-hydroxypropan-2-yl)phenyl)imidazo[1,2-a]pyrazine-6-carboxamide] |
| < 100 nM | 100 to 500 nM | [2H]C([2H])([2H])n1nccc1-c1cn2c(-c3cc(C(O)(CO)C(F)(F)F)ccc3C)cnc2c(N)n1 (single isomer, unassigned) [Example 67, 2-(3-(8-Amino-6-(1-(methyl-d3)-1H-pyrazol-5-yl)imidazo[1,2-a]pyrazin-3-yl)-4-methylphenyl)-3,3,3-trifluoropropane-1,2-diol trifluoroacetate salt] |
| 500 to 2000 nM | 500 to 2000 nM | CCOC(=O)C1CC1c1cn2c(-c3cc(C(C)(O)C(F)F)ccc3C)cnc2c(N)n1 (single isomer, unassigned) [Example 74, Ethyl 2-(8-amino-3-(5-(1,1-difluoro-2-hydroxypropan-2-yl)-2-methylphenyl)imidazo[1,2-a]pyrazin-6-yl)cyclopropane-1-carboxylate trifluoroacetate salt] |
| < 100 nM | 500 to 2000 nM | Cc1ccc(C(C)(O)C(F)F)cc1-c1cnc2c(N)nc(C3CC3CO)cn12 (single isomer, unassigned) [Example 80, 2-(3-(8-Amino-6-(2-(hydroxymethyl)cyclopropyl)imidazo[1,2-a]pyrazin-3-yl)-4-methylphenyl)-1,1-difluoropropan-2-ol] |
| < 100 nM | 500 to 2000 nM | Cc1ccc(C(C)(O)C(F)(F)F)cc1-c1cnc2c(N)ncnn12 (centres unmarked) [Example 3, 2-(3-(4-Aminoimidazo[2,1-f][1,2,4]triazin-7-yl)-4-methylphenyl)-1,1,1-trifluoropropan-2-ol] |
| < 100 nM | 100 to 500 nM | Cc1cn2c(-c3cc(C(C)(O)C(F)(F)F)ccc3C)cnc2c(N)n1 (centres unmarked) [Example 7, 2-(3-(8-Amino-6-methylimidazo[1,2-a]pyrazin-3-yl)-4-methylphenyl)-1,1,1-trifluoropropan-2-ol] |
| < 100 nM | 500 to 2000 nM | Cc1ccc(C(O)(CCNC2CCOCC2)C(F)(F)F)cc1-c1cnc2c(N)nc(C(F)(F)F)cn12 (centres unmarked) [Example 17, 2-(3-(8-Amino-6-(trifluoromethyl)imidazo[1,2-a]pyrazin-3-yl)-4-methylphenyl)-1,1,1-trifluoro-4-((tetrahydro-2H-pyran-4-yl)amino)butan-2-ol bis(2,2,2-trifluoroacetate)] |
| < 100 nM | 500 to 2000 nM | Cc1ccc(C(C)(O)C(F)F)cc1-c1cnc2c(N)nc(-c3cncnc3)cn12 (centres unmarked) [Example 32, 2-(3-(8-Amino-6-(pyrimidin-5-yl)imidazo[1,2-a]pyrazin-3-yl)-4-methylpheny1)-1,1-difluoropropan-2-ol] |
| < 100 nM | – | Cc1cc(F)c(C(C)(O)C(F)(F)F)cc1-c1cnc2c(N)nc(C(F)(F)F)cn12 (centres unmarked) [Example 53, 2-(5-(8-Amino-6-(trifluoromethyl)imidazo[1,2-a]pyrazin-3-yl)-2-fluoro-4-methylphenyl)-1,1,1-trifluoropropan-2-ol] |
| < 100 nM | – | Cc1cnc(C(C)(O)C(F)(F)F)cc1-c1cnc2c(N)nc(C(F)(F)F)cn12 (centres unmarked) [Example 54, 2-(4-(8-Amino-6-(trifluoromethyl)imidazo[1,2-a]pyrazin-3-yl)-5-methylpyridin-2-yl)-1,1,1-trifluoropropan-2-ol] |
| < 100 nM | – | CC(O)(c1cc(-c2cnc3c(N)nc(C(F)(F)F)cn23)ccc1F)C(F)(F)F (centres unmarked) [Example 55, 2-(5-(8-Amino-6-(trifluoromethyl)imidazo[1,2-a]pyrazin-3-yl)-2-fluorophenyl)-1,1,1-trifluoropropan-2-ol] |
| < 100 nM | – | CC(O)(c1cccc(-c2cnc3c(N)nc(C(F)(F)F)cn23)c1)C(F)(F)F (centres unmarked) [Example 56, 2-(3-(8-Amino-6-(trifluoromethyl)imidazo[1,2-a]pyrazin-3-yl)phenyl)-1,1,1-trifluoropropan-2-ol] |
| < 100 nM | – | CC(O)(c1ccc(F)c(-c2cnc3c(N)nc(C(F)(F)F)cn23)c1)C(F)(F)F (centres unmarked) [Example 57, 2-(3-(8-Amino-6-(trifluoromethyl)imidazo[1,2-a]pyrazin-3-yl)-4-fluorophenyl)-1,1,1-trifluoropropan-2-ol] |
| 100 to 500 nM | – | Cc1ncc(C(C)(O)C(F)(F)F)cc1-c1cnc2c(N)nc(C(F)(F)F)cn12 (centres unmarked) [Example 58, 2-(5-(8-Amino-6-(trifluoromethyl)imidazo[1,2-a]pyrazin-3-yl)-6-methylpyridin-3-yl)-1,1,1-trifluoropropan-2-ol] |
| < 100 nM | 500 to 2000 nM | Cc1ccc(C(C)(O)C(F)F)cc1-c1cnc2c(N)nc(N3CCC(C#N)CC3)cn12 (centres unmarked) [Example 64, 1-(8-Amino-3-(5-(1,1-difluoro-2-hydroxypropan-2-yl)-2-methylphenyl)imidazo[1,2-a]pyrazin-6-yl)piperidine-4-carbonitrile] |
| < 100 nM | 100 to 500 nM | Cc1ccc(C(C)(O)C(F)(F)F)cc1-c1cnc2c(N)nc(N3CCC(O)CC3)cn12 (centres unmarked) [Example 65, 1-(8-Amino-3-(2-methyl-5-(1,1,1-trifluoro-2-hydroxypropan-2-yl)phenyl)imidazo[1,2-a]pyrazin-6-yl)piperidin-4-ol] |
| < 100 nM | 100 to 500 nM | Cc1ccc(C(C)(O)C(F)F)cc1-c1cnc2c(N)nc(C3CC3C(=O)N3CCN(C)CC3)cn12 (centres unmarked) [Example 77, (2-(8-Amino-3-(5-(1,1-difluoro-2-hydroxypropan-2-yl)-2-methylphenyl)imidazo[1,2-a]pyrazin-6-yl)cyclopropyl)(4-methylpiperazin-1-yl)methanone trifluoroacetate salt] |
| 100 to 500 nM | 500 to 2000 nM | Cc1ccc(C(C)(O)C(F)(F)F)cc1-c1cnc2c(N)nc(CC(=O)N(C)C)cn12 (centres unmarked) [Example 169, 2-(8-amino-3-(2-methyl-5-(1,1,1-trifluoro-2-hydroxypropan-2-yl)phenyl)imidazo[1,2-a]pyrazin-6-yl)-N,N-dimethylacetamide trifluoroacetate salt] |
| 100 to 500 nM | 500 to 2000 nM | Cc1ccc(C(C)(O)C(F)(F)F)cc1-c1cnc2c(N)nc(CC(=O)N3CCOCC3)cn12 (centres unmarked) [Example 173, 2-(8-amino-3-(2-methyl-5-(1,1,1-trifluoro-2-hydroxypropan-2-yl)phenyl)imidazo[1,2-a]pyrazin-6-yl)-1-morpholinoethanone trifluoroacetate salt] |
